US9511053B2, “Nitric oxide scavengers” (Baxter International Inc., priority 2004, dated 2016)

What was measured:
[1] = Solubility in phosphate buffer; assay type: physicochemical
Experimental: Synthesis of 1,3-dihydroxy-2-(2-thienyl)-4,4,5,5,-tetramethylimidazolidine (compound 4 where R is compound 4c) was conducted as shown on FIG. 1. Anhydro adduct (compound 3 where R is compound 4c) was synthesized from treatment of 2,3-bis-(hydroxyamino)-2,3-dimetylbutansulfate (compound 1 where R is compound 4c) and 2-thiophenecarboxaldehyde (compound 2 where R is compound 4c) in water and methanol where compound 3 was a stable white solid insoluble in water. Compound 3 was oxidized by lead oxide in chloroform to form blue crystals (compound 4 where R is 4c). […] The nitronyl nitroxide monoradicals (compound 4 where R is compound 4a or 4b) have been tested for nitric oxide scavenge activity as described below in greater detail.

[2] = Stability of the nitronyl nitroxide monoradical on isolation; assay type: physicochemical; details: after oxidation with manganese dioxide in ether and column chromatography
Experimental: Synthesis of 1,3-Dihydroxy-2-(2,4-dihydroxyphenyl)-4,4,5,5,-tetramethylimidazolidine (compound 4 where R is compound 4a) was conducted as shown in FIG. 1. Anhydro adduct compound 3 where R is compound 4a was synthesized from treatment of 2,3-bis-(hydroxyamino)-2,3-dimetylbutansulfate (compound 1 where R is compound 4a) and 2,4-dihydroxybenzaldehyde (compound 2 where R is compound 4a) in a mixture of water and methanol. The nitronyl nitroxide monoradical (compound 4 where R is compound 4a) was obtained after oxidation of compound 3 (where R is compound 4a) with manganese dioxide in ether. Compound 4 was very unstable where only 2.5 mg of compound 4 was obtained after column chromatography.

[3] = tested on: anesthetized rats treated with LPS to induce hypotension; assay: Hydroxocobalamin animal study: MAP and HR of anesthetized rats treated with LPS to induce hypotension; assay type: in vivo, Sprague-Dawley rats
Experimental: Applicants have conducted a study to assess the effect of hydroxocobalamin on the mean arterial pressure (MAP) and heart rate (HR) of anesthetized rats that had been treated with LPS to induce hypotension as described in greater detail below.
Three male Sprague-Dawley rats were acutely instrumented with femoral arterial and venous catheters. Rats were initially anesthetized using a 60 mg/kg i.p. dose of Nembutal (sodium pentobarbital.) Each rat was then instrumented with one arterial catheter for blood pressure measurement, and two venous catheters for test article administration, and infusion of Nembutal (0.42 mL/kg/hr) for maintenance of surgical anesthesia. After placement of the catheters, rats were moved to plexiglass boxes to begin hemodynamic measurements. Baseline data were collected for 30 minutes prior to experimental manipulation in order to verify that all rats were properly anesthetized, and that baseline MAP and HR were within acceptable baseline ranges. Following baseline data collection, each rat received a 5 mg/kg intravenous dose of LPS at a rate of 1 mL/min. After achieving a sustained hypotension at approximately 60 minutes after the LPS infusion, one rat received a 6 mL/kg intravenous dose of hydroxocobalamin (14.5 mM in PBS) over a period of one hour. The remaining two rats each received a 4.57 mL/kg intravenous dose of saline over a period of one hour. MAP and HR measurements continued for 2 hours after hydroxocobalamin or saline infusion. Following LPS administration, all three rats received a continuous intravenous administration of Lactated Ringer's solution in order to prevent dehydration (2.4 mL/kg/hr). Due to a limited amount of hydroxocobalamin, it was only possible to dose one animal with this compound.

[4] = NO scavenger assessment: direct measurement of nitric oxide with NO-selective microelectrode; assay type: biochemical; details: anaerobic, room temperature, phosphate buffer 50 mM pH 7.4
Experimental: The nitric oxide (NO) scavenging activity of various compounds was determined by the direct measurement of nitric oxide. Using a NO-selective microelectrode (World Precision Instruments, ISO-NO Mark II) the nitric oxide concentration was monitored upon the addition of the test compound. The reaction rate constant was calculated for each compound. Test compounds were added in molar excess, and therefore pseudo first-order reaction kinetics were observed. The rate constant (ln ks) for each compound was calculated. Reactions were performed under anaerobic conditions at room temperature, in phosphate buffer (50 mM, pH 7.4).

CC1(C)N(O)C(c2ccc(O)cc2O)N(O)C1(C)C [4a, 1,3-Dihydroxy-2-(2,4-dihydroxyphenyl)-4,4,5,5,-tetramethylimidazolidine]
solubility in phosphate buffer [1]: soluble in phosphate buffer | stability [2]: very unstable

C/C1=C2/[N-][C@H]([C@H](CC(N)=O)[C@@]2(C)CCC(=O)NC[C@@H](C)OP(=O)([O-])O[C@H]2[C@@H](O)[C@@H](n3cnc4cc(C)c(C)cc43)O[C@@H]2CO)[C@]2(C)N=C(/C(C)=C3N=C(/C=C4N=C1[C@@H](CCC(N)=O)C\4(C)C)[C@@H](CCC(N)=O)[C@]\3(C)CC(N)=O)[C@@H](CCC(N)=O)[C@]2(C)CC(N)=O.[Co+3].[OH-] [hydroxocobalamin]
MAP below baseline levels ([3]; 60-180 minutes post-LPS (5 mg/kg i.v.), 6 mL/kg i.v. of 14.5 mM in PBS over one hour from 60 min post-LPS, one rat): 10-20 mmHg | survival ([3]; LPS 5 mg/kg i.v., 6 mL/kg i.v. of 14.5 mM in PBS over one hour, one rat, both saline rats died): survived the entire experiment | effect on HR and MAP (in words) ([3]; anesthetized rat with LPS-induced hypotension, summary): increased HR and allowed MAP to be maintained | HR above baseline levels ([3]; from 60 minutes post-LPS infusion, 6 mL/kg i.v. of 14.5 mM in PBS over one hour, one rat): approximately 140 bpm

CC1(C)N(O)C(c2ccncc2)N(O)C1(C)C [NN-2, 1,3-Dihydroxy-2-(4-pyridyl)-4,4,5,5,-tetramethylimidazolidine]
solubility in phosphate buffer [1]: soluble in phosphate buffer | Rate of NO Scavenging, ln ks ([4]; Molar ratio scavenger to NO 42:1): 3.7 | Rate of NO Scavenging, ln ks ([4]; Molar ratio scavenger to NO 111:1): 3.4

CC1(C)N([O])C(c2ccc(C(=O)O)cc2)=[N+]([O-])C1(C)C [Carboxy-PTIO]
Rate of NO Scavenging, ln ks ([4]; Molar ratio scavenger to NO 28:1): 3.8 | Rate of NO Scavenging, ln ks ([4]; Molar ratio scavenger to NO 56:1): 3.9 | Rate of NO Scavenging, ln ks ([4]; Molar ratio scavenger to NO 91:1): 3.5 | Rate of NO Scavenging, ln ks ([4]; Molar ratio scavenger to NO 129:1): 3.4

CC1(C)N(O)C(c2cccs2)N(O)C1(C)C [NN-3, 1,3-Dihydroxy-2-(2-thienyl)-4,4,5,5,-tetramethylimidazolidine]
solubility in phosphate buffer [1]: soluble in phosphate buffer | Rate of NO Scavenging, ln ks ([4]; Molar ratio scavenger to NO 71:1): 2.8 | Rate of NO Scavenging, ln ks ([4]; Molar ratio scavenger to NO 126:1): 2.8

C/C1=C2/[N-][C@H]([C@H](CC(N)=O)[C@@]2(C)CCC(=O)NC[C@@H](C)OP(=O)([O-])OC2C(O)[C@@H](n3cnc4cc(C)c(C)cc43)O[C@@H]2CO)[C@]2(C)N=C(/C(C)=C3N=C(/C=C4N=C1[C@@H](CCC(N)=O)C\4(C)C)[C@@H](CCC(N)=O)[C@]\3(C)CC(N)=O)[C@@H](CCC(N)=O)[C@]2(C)CC(N)=O.CC(=O)[O-].[Co+3] (some centres unmarked) [Vitamin B12a (acetate)]
Rate of NO Scavenging, ln ks ([4]; Molar ratio scavenger to NO 33:1): 3.7 | Rate of NO Scavenging, ln ks ([4]; Molar ratio scavenger to NO 47:1): 3.4 | Rate of NO Scavenging, ln ks ([4]; Molar ratio scavenger to NO 142:1): 3.7 | Rate of NO Scavenging, ln ks ([4]; Molar ratio scavenger to NO 277:1): 3.1
